# Columns and labels:
# [1] = target: CDK3/CycE1 (Homo sapiens, UniProt Q00526); experiment: ADP-Glo kinase assay on CDK enzymatic activity, CDK3/CycE1; assay type: biochemical; settings: 10 concentrations from 10 μM, 4-fold, 60 min room temperature
# Summary of the method: (§1)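 IC50 values derive from luminescent ADP detection (ADP-Glo) after a 60 min room-temperature kinase reaction with CDK tide and ATP. Dose range: 10 μM down in 4-fold steps, ten points.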
# [2] = system: MV-4-11 (human myelomonocytic leukemia cells); experiment: CCK-8 cell proliferation assay, MV-4-11; assay type: cell-based; settings: MV4-11, 24 h incubation, 11 concentrations from 5000 nM, 3-fold, read-out: MV-4-11 cell proliferation IC50 (class)
# [3] = target: CDK5/p25NCK (Homo sapiens, UniProt Q00535); experiment: ADP-Glo kinase assay on CDK enzymatic activity, CDK5/p25NCK; assay type: biochemical; settings: 10 concentrations from 10 μM, 4-fold, 60 min room temperature
# Summary of the method: as §1
# [4] = target: CDK2/CycA2 (Homo sapiens, UniProt P24941); experiment: ADP-Glo kinase assay on CDK enzymatic activity, CDK2/CycA2; assay type: biochemical; settings: 10 concentrations from 10 μM, 4-fold, 60 min room temperature
# Summary of the method: as §1
# [5] = target: CDK9/CycT1 (Homo sapiens, UniProt P50750); experiment: ADP-Glo kinase assay on CDK enzymatic activity, CDK9/CycT1; assay type: biochemical; settings: 10 concentrations from 10 μM, 4-fold, 60 min room temperature
# Summary of the method: as §1
# [6] = target: CDK1/CycE1 (Homo sapiens, UniProt P06493); experiment: ADP-Glo kinase assay on CDK enzymatic activity, CDK1/CycE1; assay type: biochemical; settings: ADP-Glo; 10 concentrations from 10 μM, 4-fold; 60 min room temperature; read-out: CDK1/CycE1/nM (IC50)
# Summary of the method: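 Compounds in 10-point 4-fold dilutions from 10 μM final, preincubated 10 min with kinase, then substrate/ATP added; 60 min reaction at room temperature. ADP-Glo luminescence read.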
# Chain of CDK5/p25NCK (Q00535 whole entry, species assumed): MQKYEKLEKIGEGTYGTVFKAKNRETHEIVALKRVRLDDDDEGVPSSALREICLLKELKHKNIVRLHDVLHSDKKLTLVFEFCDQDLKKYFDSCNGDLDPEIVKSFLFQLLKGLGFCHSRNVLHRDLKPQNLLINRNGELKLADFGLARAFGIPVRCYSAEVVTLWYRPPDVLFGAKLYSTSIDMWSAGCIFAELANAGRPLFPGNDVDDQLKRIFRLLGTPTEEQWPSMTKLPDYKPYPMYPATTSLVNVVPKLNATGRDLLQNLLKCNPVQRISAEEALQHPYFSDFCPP
# Chain of CDK5/p25NCK (Q15078 99-307 partner limits assumed, species assumed): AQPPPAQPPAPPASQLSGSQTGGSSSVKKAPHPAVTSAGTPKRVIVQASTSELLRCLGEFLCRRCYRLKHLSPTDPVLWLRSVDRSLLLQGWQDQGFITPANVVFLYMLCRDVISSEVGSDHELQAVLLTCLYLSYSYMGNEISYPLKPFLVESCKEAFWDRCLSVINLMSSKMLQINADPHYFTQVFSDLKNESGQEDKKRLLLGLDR
# Chain of CDK1/CycE1 (P06493 whole entry, species assumed): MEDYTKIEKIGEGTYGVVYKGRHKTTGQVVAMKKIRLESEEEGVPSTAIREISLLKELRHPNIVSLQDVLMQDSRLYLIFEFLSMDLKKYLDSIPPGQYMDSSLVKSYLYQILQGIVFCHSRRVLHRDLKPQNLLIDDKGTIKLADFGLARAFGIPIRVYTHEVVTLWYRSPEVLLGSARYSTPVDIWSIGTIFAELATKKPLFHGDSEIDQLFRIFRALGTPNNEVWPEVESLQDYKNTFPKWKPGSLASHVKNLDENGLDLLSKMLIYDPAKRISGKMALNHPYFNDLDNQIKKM
# Chain of CDK1/CycE1 (P24864 whole entry partner, species assumed): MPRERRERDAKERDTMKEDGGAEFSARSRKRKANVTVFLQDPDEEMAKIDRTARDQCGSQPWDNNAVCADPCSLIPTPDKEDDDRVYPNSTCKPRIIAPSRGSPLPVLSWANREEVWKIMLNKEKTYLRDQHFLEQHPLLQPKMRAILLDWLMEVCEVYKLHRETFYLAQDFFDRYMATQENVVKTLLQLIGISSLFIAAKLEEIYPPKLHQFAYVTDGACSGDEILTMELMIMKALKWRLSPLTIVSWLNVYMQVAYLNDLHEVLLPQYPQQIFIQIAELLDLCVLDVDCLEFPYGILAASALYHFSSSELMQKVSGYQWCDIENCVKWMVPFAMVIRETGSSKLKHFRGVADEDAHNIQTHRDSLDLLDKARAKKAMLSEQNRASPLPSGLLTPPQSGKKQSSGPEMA
# Chain of CDK3/CycE1 (Q00526 whole entry, species assumed): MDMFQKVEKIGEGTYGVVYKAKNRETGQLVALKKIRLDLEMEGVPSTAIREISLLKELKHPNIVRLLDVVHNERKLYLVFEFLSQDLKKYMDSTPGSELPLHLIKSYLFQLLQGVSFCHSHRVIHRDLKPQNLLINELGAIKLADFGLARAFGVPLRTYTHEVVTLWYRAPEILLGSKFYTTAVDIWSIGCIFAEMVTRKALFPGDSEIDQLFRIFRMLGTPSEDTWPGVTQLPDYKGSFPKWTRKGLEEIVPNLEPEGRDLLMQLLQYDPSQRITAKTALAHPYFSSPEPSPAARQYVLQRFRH
# Chain of CDK3/CycE1 (P24864 whole entry partner, species assumed): as the sequence (P24864 whole entry partner, species assumed) above
# Chain of CDK9/CycT1 (P50750 whole entry): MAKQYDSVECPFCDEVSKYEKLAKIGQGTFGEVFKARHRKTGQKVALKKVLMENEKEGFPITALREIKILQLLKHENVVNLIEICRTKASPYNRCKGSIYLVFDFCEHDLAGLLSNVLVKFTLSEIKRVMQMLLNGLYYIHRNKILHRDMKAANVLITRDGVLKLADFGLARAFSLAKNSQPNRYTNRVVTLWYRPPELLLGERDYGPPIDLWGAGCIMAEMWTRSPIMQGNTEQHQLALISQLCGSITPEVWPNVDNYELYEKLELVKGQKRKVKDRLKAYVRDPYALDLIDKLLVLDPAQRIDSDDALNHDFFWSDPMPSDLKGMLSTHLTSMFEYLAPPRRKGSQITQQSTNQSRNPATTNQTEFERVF
# Chain of CDK9/CycT1 (O60563 whole entry partner): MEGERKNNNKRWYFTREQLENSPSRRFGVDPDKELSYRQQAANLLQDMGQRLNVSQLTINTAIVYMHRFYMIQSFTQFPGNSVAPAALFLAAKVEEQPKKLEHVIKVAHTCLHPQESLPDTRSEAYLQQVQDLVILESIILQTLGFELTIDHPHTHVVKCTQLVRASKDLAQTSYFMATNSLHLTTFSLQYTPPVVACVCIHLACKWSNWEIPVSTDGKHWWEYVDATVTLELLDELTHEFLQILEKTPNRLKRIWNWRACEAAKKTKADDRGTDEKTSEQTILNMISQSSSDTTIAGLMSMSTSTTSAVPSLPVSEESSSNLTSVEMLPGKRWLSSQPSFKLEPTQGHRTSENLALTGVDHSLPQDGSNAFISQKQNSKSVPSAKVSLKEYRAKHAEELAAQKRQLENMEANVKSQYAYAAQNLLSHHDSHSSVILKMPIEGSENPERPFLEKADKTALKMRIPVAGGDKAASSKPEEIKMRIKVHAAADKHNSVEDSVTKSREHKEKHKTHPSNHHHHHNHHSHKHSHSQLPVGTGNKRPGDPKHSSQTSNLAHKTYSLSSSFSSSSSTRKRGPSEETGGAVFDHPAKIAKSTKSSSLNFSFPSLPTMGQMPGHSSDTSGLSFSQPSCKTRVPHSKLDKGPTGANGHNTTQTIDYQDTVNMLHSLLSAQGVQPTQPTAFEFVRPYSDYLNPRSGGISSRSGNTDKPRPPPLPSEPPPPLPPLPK
SMILES,IC50 [1] [nM],IC50 [2] [nM],IC50 [3] [nM],IC50 [4] [nM],IC50 [5] [nM],IC50 [6] [nM]
"CC(C)Nc1nc(C#N)cc2cnc(N[C@@H]3CN[C@H](CO)C3)cc12 [Compound 37, 7-(((3S,5S)-5-(hydroxymethyl)pyrrolidin-3-yl)amino)-1-(isopropylamino)-2,6-naphthyridine-3-carbonitrile]",1130,> 1000,941,520,5,–
"CC(C)Nc1nc(C#N)cc2cnc(N[C@@H]3CNCC[C@@H]3F)cc12 [Compound 42, 7-(((3R,4S)-4-fluoropiperidin-3-yl)amino)-1-(isopropylamino)-2,6-naphthyridine-3-carbonitrile]",1300,> 1000,3040,2020,18,–
"CC(=O)N[C@H]1CC[C@H](Nc2ncc3cc(C#N)nc(NC(C)C)c3n2)C1 [Compound 46, N-((1S,3S)-3-((6-cyano-8-(isopropylamino)pyrido[3,4-d]pyrimidin-2-yl)amino)cyclopentyl)acetamide]",271,400 to 1000,72,33,3,–
"CC(=O)N[C@@H]1CC[C@H](Nc2cc3c(NC(C)C)nc(C#N)cc3cn2)C1 [Compound 47, N-((1R,3S)-3-((7-cyano-5-(isopropylamino)-2,6-naphthyridin-3-yl)amino)cyclopentyl)acetamide]",987,400 to 1000,1050,494,17,–
"CC(C)Nc1nc(C(F)F)cc2cnc(N[C@H]3CC[C@@H](N)C3)cc12 [Compound 53, N7-((1S,3R)-3-aminocyclopentyl)-3-(difluoromethyl)-N^1-isopropyl-2,6-naphthyridine-1,7-diamine]",315,400 to 1000,549,161,2,709
"COCCN[C@H]1CC[C@H](Nc2cc3c(NC(C)C)nc(C#N)cc3cn2)C1 [Compound 56, 1-(isopropylamino)-7-(((1S,3S)-3-((2-methoxyethyl)amino)cyclopentyl)amino)-2,6-naphthyridine-3-carbonitrile]",1110,400 to 1000,927,656,3,–
"CC(C)Nc1nc(C#N)cc2cnc(N[C@H]3CCCN(C)C3)cc12 [Compound 57, (S)-1-(isopropylamino)-7-((1-methylpiperidin-3-yl)amino)-2,6-naphthyridine-3-carbonitrile]",2520,> 1000,1760,427,30,–
"CC(C)Nc1nc(C#N)cc2cnc(N[C@H]3CC[C@H](C)NC3)nc12 [Compound 107, 8-(isopropylamino)-2-(((3S,6S)-6-methylpiperidin-3-yl)amino)pyrido[3,4-d]pyrimidine-6-carbonitrile]",831,400 to 1000,435,443,18,947
"CC(C)Nc1nc(C#N)cc2cnc(NC3CCNCC3)nc12 [Compound 114, 8-(isopropylamino)-2-(piperidin-4-ylamino)pyrido[3,4-d]pyrimidine-6-carbonitrile]",413,400 to 1000,1170,504,9,216
"C[C@@H](Nc1nc(C#N)cc2cnc(N[C@H]3CCCNC3)cc12)c1ccccc1 [Compound 147, 1-(((R)-1-phenylethyl)amino)-7-(((S)-piperidin-3-yl)amino)-2,6-naphthyridine-3-carbonitrile]",215,400 to 1000,2230,531,3,158
